Test results published in US7316913B2, “Methods and means for influencing intracellular communication and intracellular organelle transport” (Stiftelsen Universitetsforskning Bergen, priority 2001, dated 2008).

Experiments:
PC12 cells [1] = test: Filipin staining of cellular cholesterol content; format: cell-based, rat; details: 5 millimolar methyl-β-cyclodextrin; filipin fluorescence, mean grey scale values
Procedure: FIG. 18—the effect of cholesterol on the stability of TNTs. Two hours after passage of PC12 cells, the cell culture medium was exchanged for DMEM with 5, 8 or 10 millimolar saccharose (controls) or DMEM with 5, 8 or 10 mM methyl-β-cyclodextrin and the cells incubated for half an hour at 30° C. and 10% CO2. After the addition of WGA a three-dimensional analysis of 10 randomly selected microscopic fields was carried out (Olympus IX70, 100× objective, […]™ System, Piezo-z-stepper, in each case 40 sections) and the number of TNTs determined. […] Quantifications yielded a strong reduction of the TNT number with increasing methyl-β-cyclodextrin concentration; 40% reduction at 5 millimolar methyl-β-cyclodextrin; 93% reduction at 8 millimolar methyl-β-cyclodextrin; 100% at 10 millimolar methyl-β-cyclodextrin (c1). […] For this purpose, the methyl-β-cyclodextrin or saccharose containing DMEM of the analysed cell was exchanged with DMEM having 20 microgramm per millilitre filipin and 15 minutes later the intensity of the fluorescence staining analysed in vivo with a FITC/TRITC/DAPI filter set (Chroma, Brattleboro). In detail, after excitation at 400 nm four randomly selected microscopic fields were imaged and the mean grey scale values determined. […]

TNTs between PC12 cells [2] = test: Number of TNTs in PC12 cells after cholesterol extraction (WGA staining, three-dimensional microscopy); format: cell-based, rat; details: half an hour, 2 h after passage, vs saccharose controls
TNTs between PC12 cells [3] = format: cell-based, rat
[4] = system: VP22 intercellular exchange; details: destruction of the filamentary actin; cited from earlier work
PC12 cells [5] = test: Thymidin G1/S cell cycle block: mitosis stadia and TNT formation; format: cell-based, rat; details: 2.5 mM thymidin, 14 hours before passage; analysed ca. 1 hour after passage
Procedure: FIG. 12a—fluorescence microscopy image of PC12 cells ca. 1 hour after cell passage and staining with WGA, 20 minutes fixing in 4% paraformaldehyde/4% sucrose, 3 minutes treatment with 0.2% TRITON™ X-100 and nucleus staining with Dapi—left images in (a): the 14 hour long treatment of the cells before passage with 2.5 mM thymidin in the cell culture medium blocked the cells in the G1/S phase of the cell cycle and prevented a division of the cells; right images in (a): in non-treated PC12 cells (controls) there can be observed in the nucleus staining mitosis stadia (arrows). Despite the absence of mitosis stadia the thymidin treated PC12 cells form TNTs (arrow tips), (bar: 20 micrometer);
Via a three-dimensional videomicroscopic analysis of suprarenal medulla cells in accordance with Example 1 point 2a, b there was detected the formation of an organized TNT based network between the cells, via which a syncytium arises (FIGS. 2e, f, FIGS. 3n-q2, FIGS. 4a-c) and organelles can be unidirectionally transferred (FIGS. 4d-h, FIG. 14). TNTs were, in accordance with Example 16 found in all to date investigated cells structure systems such as PC12 cells, HEK cells (FIG. 16a) and primary cultures of the medulla (FIG. 16b) and of the hippocampus (FIG. 16c). With a special colouring method, moreover, very long TNTs have been found. […]

methyl-β-cyclodextrin
reduction of the cellular cholesterol content (PC12 cells [1]): 20%
reduction of the TNT number (TNTs between PC12 cells [2]; 8 millimolar methyl-β-cyclodextrin in DMEM): 93%
reduction of the TNT number (TNTs between PC12 cells [2]; 10 millimolar methyl-β-cyclodextrin in DMEM): 100%

C/C1=C/C(=O)O[C@@H]2C[C@@H](CC[C@H](C)/C=C\CC1)O[C@@](O)([C@@H]1CSC(=O)N1)C2 [latrunculin B]
effect on TNT formation and on TNTs present (TNTs between PC12 cells [3]): TNTs no longer form and TNTs present are destroyed

C=C1[C@@H](C)[C@H]2[C@H](Cc3ccccc3)NC(=O)[C@]23[C@H](OC(C)=O)/C=C/[C@@](C)(O)C(=O)[C@@H](C)C/C=C/[C@H]3[C@@H]1O [cytochalasin D]
intercellular exchange of VP22 [4]: can be prevented

Cc1cn([C@H]2C[C@H](O)[C@@H](CO)O2)c(=O)[nH]c1=O [thymidin]
TNT formation retained in comparison with the controls (PC12 cells [5]): 86.5%
number of mitosis stadia in comparison with the controls (PC12 cells [5]): 20%
